What was measured:
σ1 site [1] = target: T1, σ1 site (Homo sapiens, UniProt Q99720); settings: read-out: Affinity for σ1 Site (Ki or KD values); cited from earlier work
σ1 site [2] = target: T1, σ1 site; settings: cited from earlier work
SARS-CoV-2 infection = assay: Retrospective cohort (BJC Healthcare): antidepressant exposure and ED or hospital encounter within 30 days; assay type: in vivo, human; settings: for Unadjusted Odds Ratio, ED or hospital encounter within 30 days / Adjusted Odds Ratio, ED or hospital encounter within 30 days: vs No Antidepressant (Ref); for Unadjusted Odds Ratio, ED or hospital encounter within 30 days: logistic regression; for Adjusted Odds Ratio, ED or hospital encounter within 30 days: multivariable logistic regression, complete cases
[3] = share of exposed outpatients with an encounter after a positive SARS-CoV-2 test

T1 sequence (Q99720 whole entry): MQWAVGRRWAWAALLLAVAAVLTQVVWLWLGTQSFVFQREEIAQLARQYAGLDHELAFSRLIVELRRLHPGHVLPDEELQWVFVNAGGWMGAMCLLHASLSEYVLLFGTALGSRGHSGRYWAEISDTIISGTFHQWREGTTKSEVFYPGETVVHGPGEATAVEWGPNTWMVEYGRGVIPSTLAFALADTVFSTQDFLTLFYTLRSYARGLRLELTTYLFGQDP

Row | Molecule | Ki (σ1 site [1]) [nM] | Function on σ1 Site (σ1 site [2]) | further results
1 | COC(=O)C1(c2ccc(C)cc2)CC1CN1CCC(O)(c2ccccc2)CC1 (single isomer, unassigned; (+)) [(+)-MR 200] | < 50 | Antagonist | –
2 | CC(C)=CCN1CCC2(C)c3cc(O)ccc3CC1C2C (single isomer, unassigned; (+)) [(+)-Pentazocine] | – | Agonist | –
3 | CC(C)=CCN1CCC2(C)c3cc(O)ccc3CC1C2C (single isomer, unassigned; (-)) [(−)-Pentazocine] | – | Agonist | –
4 | O=C(NC1CCN(Cc2ccccc2)CC1)c1ccc(I)cc1 [4-IBP] | < 50 | Agonist | –
5 | CCCN1CCC[C@H](c2cccc(O)c2)C1 [(+)-3-PPP] | – | Agonist | –
6 | NC12CC3CC(CC(C3)C1)C2 [Amantadine] | – | Agonist^? | –
7 | CN(C)CCN(C)CCc1ccc(Cl)c(Cl)c1 [BD 1047] | – | Antagonist | –
8 | CN1CCN(CCc2ccc(Cl)c(Cl)c2)CC1 [BD 1063] | < 50 | Antagonist | –
9 | OC(CCCN1CCN(c2ncc(F)cn2)CC1)c1ccc(F)cc1 (stereo not shown) [BMY 14802] | – | Antagonist | –
10 | CCN(CC)CCOCCOC(=O)C1(c2ccccc2)CCCC1 [Carbetapentane] | < 50 | Agonist | –
11 | C#CCN(C)CCCOc1ccc(Cl)cc1Cl [Clorgyline] | < 50 | Agonist^? | –
12 | COC(=O)[C@H]1[C@@H](OC(=O)c2ccccc2)C[C@@H]2CC[C@H]1N2C [Cocaine] | < 10000 | – | –
13 | C[C@]12CC[C@H](OS(=O)(=O)O)CC1=CC[C@@H]1[C@@H]2CC[C@]2(C)C(=O)CC[C@@H]12 [DHEAS] | < 10000 | Agonist | –
14 | CN(C)CC(c1ccc(O)cc1)C1(O)CCCCC1 (stereo not shown) [Desvenlafaxine] | – | – | ED or hospital encounter within 30 days, % (SARS-CoV-2 infection; [3]): 18.7%; Unadjusted Odds Ratio, ED or hospital encounter within 30 days (SARS-CoV-2 infection): 2.15; Adjusted Odds Ratio, ED or hospital encounter within 30 days (SARS-CoV-2 infection): 0.95
15 | Cc1ccc2c(c1)[C@]13CCCC[C@@H]1[C@H](C2)N(C)CC3 [Dimemorfan] | < 500 | Agonist | –
16 | COc1cc2c(cc1OC)C(=O)C(CC1CCN(Cc3ccccc3)CC1)C2 (stereo not shown) [Donepezil] | < 50 | Agonist | –
17 | CN(C)CCC=C1c2ccccc2COc2ccccc21 [Doxepin] | – | – | ED or hospital encounter within 30 days, % (SARS-CoV-2 infection; [3]): 27.5%; Unadjusted Odds Ratio, ED or hospital encounter within 30 days (SARS-CoV-2 infection): 3.55; Adjusted Odds Ratio, ED or hospital encounter within 30 days (SARS-CoV-2 infection): 1.10
18 | CNCC[C@H](Oc1cccc2ccccc12)c1cccs1 [Duloxetine] | – | – | ED or hospital encounter within 30 days, % (SARS-CoV-2 infection; [3]): 21.8%; Unadjusted Odds Ratio, ED or hospital encounter within 30 days (SARS-CoV-2 infection): 2.61; Adjusted Odds Ratio, ED or hospital encounter within 30 days (SARS-CoV-2 infection): 0.95
19 | O=C(CC1CCN(CC2CC2)CC1)c1ccc(F)cc1 [Dup 734] | < 50 | – | –
20 | Fc1ccc(C2=CCN(CCCCn3cncn3)CC2)cc1.O=C(O)CC(O)(CC(=O)O)C(=O)O [E-5842] | < 50 | Antagonist | –
21 | OC(CN1CCC(Cc2ccc(F)cc2)CC1)c1ccc(Cl)cc1 (stereo not shown) [Eliprodil (SL-82.0715), Eliprodil] | < 500 | – | –
22 | OC(CCCN1CCC(O)(c2ccc(Cl)cc2)CC1)c1ccc(F)cc1 (stereo not shown) [Haloperidol Metabolite II] | – | Irreversible | –
23 | OC1(c2ccc(Cl)cc2)CCNCC1 [Haloperidol Metabolite I] | < 500 | Antagonist | –
24 | CCC(C/C=C/c1ccccc1)(c1ccccc1)N(C)CC1CC1 (stereo not shown) [JO-1784 (Igmesine), Igmesine] | < 50 | Agonist | –
25 | CCN(CC)C(=O)[C@@]1(c2ccccc2)C[C@H]1CN [Levomilnacipran] | – | – | ED or hospital encounter within 30 days, % (SARS-CoV-2 infection; [3]): 20.0%
26 | CNC(C)Cc1ccc2c(c1)OCO2 (stereo not shown) [MDMA] | < 10000 | – | –

Row | Molecule | Ki (σ1 site [1]) [nM] | Function on σ1 Site (σ1 site [2]) | further results
27 | COCCN1CCN(C[C@H]2CCN(c3ccc(Cl)cc3)C2=O)CC1.O=C(O)C(O)C(O)C(=O)O [MS-377] | < 50 | Antagonist | –
28 | CC12CC3CC(C)(C1)CC(N)(C3)C2 [Memantine] | < 10000 | Agonist^? | –
29 | CN[C@@H](C)Cc1ccccc1 [Metamphetamine] | < 10000 | – | –
30 | S=C=Nc1cccc(C2(N3CCCCC3)CCCCC2)c1 [Metaphit] | < 500 | Irreversible | –
31 | CN1CCN2c3ncccc3Cc3ccccc3C2C1 (stereo not shown) [Mirtazapine] | – | – | ED or hospital encounter within 30 days, % (SARS-CoV-2 infection; [3]): 27.9%
32 | CCCN(CCC)CCc1ccc(OC)c(OCCc2ccccc2)c1 [NE-100] | – | Antagonist | –
33 | CCc1nn(CCCN2CCN(c3cccc(Cl)c3)CC2)c(=O)n1CCOc1ccccc1 [Nefazodone] | – | – | ED or hospital encounter within 30 days, % (SARS-CoV-2 infection; [3]): 0.0%
34 | CNc1cc(OC)c(C(=O)NC2CCN(Cc3ccccc3)C2C)cc1Cl (stereo not shown) [Nemonapride] | < 50 | – | –
35 | CNCCC=C1c2ccccc2CCc2ccccc21 [Nortriptyline] | – | – | ED or hospital encounter within 30 days, % (SARS-CoV-2 infection; [3]): 24.3%; Unadjusted Odds Ratio, ED or hospital encounter within 30 days (SARS-CoV-2 infection): 3.02; Adjusted Odds Ratio, ED or hospital encounter within 30 days (SARS-CoV-2 infection): 1.08
36 | COc1cccc2c1CCC(=O)N2CCCN1CCN(c2cccc(Cl)c2)CC1 [OPC-14523] | < 50 | Agonist | –
37 | O=C(OCCN1CCOCC1)C1(c2ccccc2)CCCCC1 [PRE 084] | – | Agonist | –
38 | COc1ccc(N2C[C@H](CN3CCC(O)(c4ccc5c(c4)OCO5)CC3)OC2=O)cc1 [Panamesine (EMD 57445), Panamesine] | < 50 | Antagonist | –
39 | O=C1NC(=O)C(c2ccccc2)(c2ccccc2)N1 [Phenytoin (DPH), Phenytoin] | – | Allosteric | –
40 | CC(=O)[C@H]1CC[C@H]2[C@@H]3CCC4=CC(=O)CC[C@]4(C)[C@H]3CC[C@]12C [Progesterone] | – | Antagonist | –
41 | C[C@@H]1CN(CCCn2c3ccccc3c3ccccc32)C[C@H](C)N1 [Rimcazole (BW-234U), Rimcazole] | – | Antagonist | –
42 | Cc1cccc(/C=N/N2CCN(C(c3ccccc3)c3ccccc3)CC2)n1 [Ropizine] | – | Allosteric | –
43 | O=c1n(CCCN2CCN(c3cccc(Cl)c3)CC2)nc2ccccn12 [Trazodone] | – | – | ED or hospital encounter within 30 days, % (SARS-CoV-2 infection; [3]): 22.6%; Unadjusted Odds Ratio, ED or hospital encounter within 30 days (SARS-CoV-2 infection): 2.74; Adjusted Odds Ratio, ED or hospital encounter within 30 days (SARS-CoV-2 infection): 0.99
44 | N#Cc1ccc2[nH]cc(CCCCN3CCN(c4ccc5oc(C(N)=O)cc5c4)CC3)c2c1 [Vilazodone] | – | – | ED or hospital encounter within 30 days, % (SARS-CoV-2 infection; [3]): 29.4%; Unadjusted Odds Ratio, ED or hospital encounter within 30 days (SARS-CoV-2 infection): 3.91; Adjusted Odds Ratio, ED or hospital encounter within 30 days (SARS-CoV-2 infection): 1.36
45 | Cc1ccc(Sc2ccccc2N2CCNCC2)c(C)c1 [Vortioxetine] | – | – | ED or hospital encounter within 30 days, % (SARS-CoV-2 infection; [3]): 14.3%; Unadjusted Odds Ratio, ED or hospital encounter within 30 days (SARS-CoV-2 infection): 1.56; Adjusted Odds Ratio, ED or hospital encounter within 30 days (SARS-CoV-2 infection): 0.58
46 | CC(NC(C)(C)C)C(=O)c1cccc(Cl)c1 (stereo not shown) [bupropion] | – | – | ED or hospital encounters within 30 days, % (SARS-CoV-2 infection; <20 mg fluoxetine-equivalent daily): 13.9%; ED or hospital encounter within 30 days, % (SARS-CoV-2 infection; [3]): 14.3%; ED or hospital encounters within 30 days, % (SARS-CoV-2 infection; ≥20 mg fluoxetine-equivalent daily): 15.0%; ED or hospital encounters within 30 days, % (SARS-CoV-2 infection; ≥40 mg fluoxetine-equivalent daily): 20.0%
47 | CN(C)CCCC1(c2ccc(F)cc2)OCc2cc(C#N)ccc21 (stereo not shown) [citalopram] | – | – | ED or hospital encounter within 30 days, % (SARS-CoV-2 infection; [3]): 15.8%
48 | CN(C)CCCN1c2ccccc2CCc2ccc(Cl)cc21 [clomipramine] | – | – | ED or hospital encounter within 30 days, % (SARS-CoV-2 infection; in vivo): 18.2%
49 | CNCCCN1c2ccccc2CCc2ccccc21 [desipramine] | – | – | ED or hospital encounter within 30 days, % (SARS-CoV-2 infection; [3]): 10.0%; Unadjusted Odds Ratio, ED or hospital encounter within 30 days (SARS-CoV-2 infection): 1.04; Adjusted Odds Ratio, ED or hospital encounter within 30 days (SARS-CoV-2 infection): 0.24
50 | CN(C)CCCN1c2ccccc2CCc2ccccc21 [imipramine] | < 500 | Agonist | ED or hospital encounter within 30 days, % (SARS-CoV-2 infection; [3]): 23.5%
51 | COc1ccc(C(CN(C)C)C2(O)CCCCC2)cc1 (stereo not shown) [venlafaxine] | – | – | ED or hospital encounter within 30 days, % (SARS-CoV-2 infection; [3]): 17.1%; Unadjusted Odds Ratio, ED or hospital encounter within 30 days (SARS-CoV-2 infection): 1.94; Adjusted Odds Ratio, ED or hospital encounter within 30 days (SARS-CoV-2 infection): 0.78
52 | Pregnenolone sulfate | – | Agonist | –

Source: patent US20240315989A1 (priority 2021, published 2024)
